Results from ChEMBL document CHEMBL1629679, “Extended-spectrum cephalosporinases in Pseudomonas aeruginosa” (2009).
≈ marks a conversion by molar mass, not a printed value.

Experiments:
Pseudomonas aeruginosa [1] = assay: Antimicrobial activity against AmpC overproducing Pseudomonas aeruginosa isolate Pae-beta-25 with PDC-6 variant by Etest; assay type: functional
Pseudomonas aeruginosa [2] = assay: microbe, parasite or virus in culture; assay type: functional; conditions: KG2505a
Pseudomonas aeruginosa [3] = assay: Antimicrobial activity against AmpC overproducing Pseudomonas aeruginosa isolate Pae-beta-07 with PDC-2 variant by Etest; assay type: functional
Pseudomonas aeruginosa [4] = assay: Antimicrobial activity against AmpC overproducing Pseudomonas aeruginosa isolate Pae-beta-08 with PDC-2 variant by Etest; assay type: functional
Pseudomonas aeruginosa [5] = assay: Antimicrobial activity against AmpC overproducing Pseudomonas aeruginosa isolate Pae-beta-21 with PDC-4 variant by Etest; assay type: functional
Pseudomonas aeruginosa [6] = assay: Antimicrobial activity against AmpC overproducing Pseudomonas aeruginosa isolate Pae-beta-24 with PDC-5 variant by Etest; assay type: functional
Pseudomonas aeruginosa [7] = assay: Antimicrobial activity against Pseudomonas aeruginosa isolate Pae-beta-31 with PDC-9 variant by Etest; assay type: functional
Pseudomonas aeruginosa [8] = assay: Antimicrobial activity against AmpC overproducing Pseudomonas aeruginosa isolate Pae-beta-22 with PDC-4 variant by Etest; assay type: functional
Pseudomonas aeruginosa [9] = assay: microbe, parasite or virus in culture; conditions: 12B
Pseudomonas aeruginosa [10] = assay: Antimicrobial activity against AmpC overproducing Pseudomonas aeruginosa isolate Pae-beta-16 with PDC-3 variant by Etest; assay type: functional
Pseudomonas aeruginosa [11] = assay: Antimicrobial activity against AmpC overproducing Pseudomonas aeruginosa isolate Pae-beta-14 with PDC-2 variant by Etest; assay type: functional
Pseudomonas aeruginosa [12] = assay: Antimicrobial activity against AmpC overproducing Pseudomonas aeruginosa isolate Pae-beta-12 with PDC-2 variant by Etest; assay type: functional
Pseudomonas aeruginosa [13] = assay: Antimicrobial activity against AmpC overproducing Pseudomonas aeruginosa isolate Pae-beta-20 with PDC-4 variant by Etest; assay type: functional
Pseudomonas aeruginosa [14] = assay: microbe, parasite or virus in culture; assay type: functional; conditions: KG2505a; remark: listed apart in the source
Pseudomonas aeruginosa [15] = assay: Antimicrobial activity against AmpC overproducing Pseudomonas aeruginosa isolate Pae-beta-04 with PDC-2 variant by Etest; assay type: functional
Pseudomonas aeruginosa [16] = assay: Antimicrobial activity against Pseudomonas aeruginosa isolate Pae-beta-30 with PDC-8 variant by Etest; assay type: functional
Pseudomonas aeruginosa [17] = assay: Antimicrobial activity against AmpC overproducing Pseudomonas aeruginosa isolate Pae-beta-03 with PDC-2 variant by Etest; assay type: functional
Pseudomonas aeruginosa [18] = assay: Antimicrobial activity against AmpC overproducing Pseudomonas aeruginosa isolate Pae-beta-15 with PDC-2 variant by Etest; assay type: functional
Pseudomonas aeruginosa [19] = assay: Antimicrobial activity against Pseudomonas aeruginosa isolate Pae-beta-05 with PDC-2 variant by Etest; assay type: functional
Pseudomonas aeruginosa [20] = assay: Antimicrobial activity against AmpC overproducing Pseudomonas aeruginosa isolate Pae-beta-17 with PDC-3 variant by Etest; assay type: functional
Pseudomonas aeruginosa [21] = assay: Antimicrobial activity against AmpC overproducing Pseudomonas aeruginosa isolate Pae-beta-11 with PDC-2 variant by Etest; assay type: functional
Pseudomonas aeruginosa [22] = assay: Antimicrobial activity against AmpC overproducing Pseudomonas aeruginosa isolate Pae-beta-06 with PDC-2 variant by Etest; assay type: functional
Pseudomonas aeruginosa [23] = assay: microbe, parasite or virus in culture; conditions: PAO1
Pseudomonas aeruginosa [24] = assay: Antimicrobial activity against AmpC overproducing Pseudomonas aeruginosa isolate Pae-beta-09 with PDC-2 variant by Etest; assay type: functional
Pseudomonas aeruginosa [25] = assay: Antimicrobial activity against AmpC overproducing Pseudomonas aeruginosa isolate Pae-beta-32 with PDC-10 variant by Etest; assay type: functional
Pseudomonas aeruginosa [26] = assay: microbe, parasite or virus in culture; assay type: functional; conditions: KG2505a; remark: listed apart in the source
Pseudomonas aeruginosa [27] = assay: Antimicrobial activity against AmpC overproducing Pseudomonas aeruginosa isolate Pae-beta-18 with PDC-3 variant by Etest; assay type: functional
Pseudomonas aeruginosa [28] = assay: microbe, parasite or virus in culture; conditions: 12B; remark: listed apart in the source
Pseudomonas aeruginosa [29] = assay: Antimicrobial activity against AmpC overproducing Pseudomonas aeruginosa isolate Pae-beta-13 with PDC-2 variant by Etest; assay type: functional
Pseudomonas aeruginosa [30] = assay: Antimicrobial activity against AmpC overproducing Pseudomonas aeruginosa isolate Pae-beta-10 with PDC-2 variant by Etest; assay type: functional
Pseudomonas aeruginosa [31] = assay: microbe, parasite or virus in culture; assay type: functional; conditions: KG2505a; remark: listed apart in the source
Pseudomonas aeruginosa [32] = assay: microbe, parasite or virus in culture; assay type: functional; conditions: KG2505a; remark: listed apart in the source
Pseudomonas aeruginosa [33] = assay: Antimicrobial activity against AmpC overproducing Pseudomonas aeruginosa isolate Pae-beta-23 with PDC-5 variant by Etest; assay type: functional
Pseudomonas aeruginosa [34] = assay: Antimicrobial activity against AmpC overproducing Pseudomonas aeruginosa isolate Pae-beta-28 with PDC-7 variant by Etest; assay type: functional
Pseudomonas aeruginosa [35] = assay: microbe, parasite or virus in culture; assay type: functional; conditions: 12B
Pseudomonas aeruginosa [36] = assay: Antimicrobial activity against AmpC overproducing Pseudomonas aeruginosa isolate Pae-beta-27 with PDC-7 variant by Etest; assay type: functional
Pseudomonas aeruginosa [37] = assay: Antimicrobial activity against Pseudomonas aeruginosa isolate Pae-beta-29 with PDC-8 variant by Etest; assay type: functional

| SMILES | MIC (Pseudomonas aeruginosa [1]) | MIC (Pseudomonas aeruginosa [3]) | MIC (Pseudomonas aeruginosa [4]) | MIC (Pseudomonas aeruginosa [5]) | MIC (Pseudomonas aeruginosa [6]) | MIC (Pseudomonas aeruginosa [7]) | MIC (Pseudomonas aeruginosa [8]) | MIC (Pseudomonas aeruginosa [10]) | MIC (Pseudomonas aeruginosa [11]) | MIC (Pseudomonas aeruginosa [12]) | MIC (Pseudomonas aeruginosa [13]) | MIC (Pseudomonas aeruginosa [15]) | MIC (Pseudomonas aeruginosa [16]) | MIC (Pseudomonas aeruginosa [17]) | MIC (Pseudomonas aeruginosa [18]) | MIC (Pseudomonas aeruginosa [19]) | MIC (Pseudomonas aeruginosa [20]) | MIC (Pseudomonas aeruginosa [21]) | MIC (Pseudomonas aeruginosa [22]) | MIC (Pseudomonas aeruginosa [24]) | also measured |
| --- | --- | --- | --- | --- | --- | --- | --- | --- | --- | --- | --- | --- | --- | --- | --- | --- | --- | --- | --- | --- | --- |
| CO/N=C(\C(=O)N[C@@H]1C(=O)N2C(C(=O)[O-])=C(C[N+]3(C)CCCC3)CS[C@H]12)c1csc(N)n1 | 32 µg/mL (≈ 66.6 µM) | 32 µg/mL (≈ 66.6 µM) | 32 µg/mL (≈ 66.6 µM) | 32 µg/mL (≈ 66.6 µM) | 64 µg/mL (≈ 133 µM) | 32 µg/mL (≈ 66.6 µM) | 16 µg/mL (≈ 33.3 µM) | 32 µg/mL (≈ 66.6 µM) | 32 µg/mL (≈ 66.6 µM) | 32 µg/mL (≈ 66.6 µM) | 16 µg/mL (≈ 33.3 µM) | 32 µg/mL (≈ 66.6 µM) | 8 µg/mL (≈ 16.6 µM) | 64 µg/mL (≈ 133 µM) | 128 µg/mL (≈ 266 µM) | 16 µg/mL (≈ 33.3 µM) | 32 µg/mL (≈ 66.6 µM) | 32 µg/mL (≈ 66.6 µM) | 32 µg/mL (≈ 66.6 µM) | 32 µg/mL (≈ 66.6 µM) | MIC (Pseudomonas aeruginosa [2]): 16 µg/mL (≈ 33.3 µM); MIC (Pseudomonas aeruginosa [9]): 32 µg/mL (≈ 66.6 µM); MIC (Pseudomonas aeruginosa [14]): 16 µg/mL (≈ 33.3 µM); MIC (Pseudomonas aeruginosa [23]): 2 µg/mL (≈ 4.16 µM); MIC (Pseudomonas aeruginosa [25]): 32 µg/mL (≈ 66.6 µM); MIC (Pseudomonas aeruginosa [26]): 4 µg/mL (≈ 8.32 µM); MIC (Pseudomonas aeruginosa [27]): 128 µg/mL (≈ 266 µM); MIC (Pseudomonas aeruginosa [28]): 32 µg/mL (≈ 66.6 µM); MIC (Pseudomonas aeruginosa [29]): 16 µg/mL (≈ 33.3 µM); MIC (Pseudomonas aeruginosa [30]): 32 µg/mL (≈ 66.6 µM); MIC (Pseudomonas aeruginosa [31]): 1 µg/mL (≈ 2.08 µM); MIC (Pseudomonas aeruginosa [32]): 4 µg/mL (≈ 8.32 µM); MIC (Pseudomonas aeruginosa [33]): 32 µg/mL (≈ 66.6 µM); MIC (Pseudomonas aeruginosa [34]): 16 µg/mL (≈ 33.3 µM); MIC (Pseudomonas aeruginosa [35]): 4 µg/mL (≈ 8.32 µM); MIC (Pseudomonas aeruginosa [36]): 64 µg/mL (≈ 133 µM) |
| C[C@@H](O)[C@H]1C(=O)N2C(C(=O)O)=C(SCCNC=N)C[C@H]12 [IMIPENEM ANHYDROUS] | 8 µg/mL (≈ 26.7 µM) | 16 µg/mL (≈ 53.4 µM) | 16 µg/mL (≈ 53.4 µM) | 16 µg/mL (≈ 53.4 µM) | 32 µg/mL (≈ 107 µM) | 16 µg/mL (≈ 53.4 µM) | 8 µg/mL (≈ 26.7 µM) | 32 µg/mL (≈ 107 µM) | 16 µg/mL (≈ 53.4 µM) | 16 µg/mL (≈ 53.4 µM) | 16 µg/mL (≈ 53.4 µM) | 16 µg/mL (≈ 53.4 µM) | 8 µg/mL (≈ 26.7 µM) | 16 µg/mL (≈ 53.4 µM) | 16 µg/mL (≈ 53.4 µM) | 16 µg/mL (≈ 53.4 µM) | 32 µg/mL (≈ 107 µM) | 16 µg/mL (≈ 53.4 µM) | 16 µg/mL (≈ 53.4 µM) | 16 µg/mL (≈ 53.4 µM) | MIC (Pseudomonas aeruginosa [37]): 16 µg/mL (≈ 53.4 µM); MIC (Pseudomonas aeruginosa [25]): 64 µg/mL (≈ 214 µM); MIC (Pseudomonas aeruginosa [27]): 64 µg/mL (≈ 214 µM); MIC (Pseudomonas aeruginosa [29]): 16 µg/mL (≈ 53.4 µM); MIC (Pseudomonas aeruginosa [30]): 16 µg/mL (≈ 53.4 µM); MIC (Pseudomonas aeruginosa [33]): 32 µg/mL (≈ 107 µM); MIC (Pseudomonas aeruginosa [34]): 16 µg/mL (≈ 53.4 µM); MIC (Pseudomonas aeruginosa [36]): 32 µg/mL (≈ 107 µM) |
